Data reported in patent publication US12043599B2, “Herbicidal compounds” (SYNGENTA PARTICIPATIONS AG, priority 2018, dated 2024).

Key:
Type in all cases: in vivo
Conditions in all cases: 250 g/h, evaluated after 13 days
[1] = system: Setaria faberi (SETFA); assay: Post-emergence herbicidal glasshouse test, percentage damage
Procedure: (§1) Seeds of a variety of test species are sown in standard soil in pots (Lolium perenne (LOLPE), Setaria faberi (SETFA), Alopecurus myosuroides (ALOMY), Echinochloa crus-galli (ECHCG), Avena fatua (AVEFA)). After cultivation for one day (pre-emergence) or after 8 days cultivation (post-emergence) under controlled conditions in a glasshouse (at 24/16° C., day/night; 14 hours light; 65% humidity), the plants are sprayed with an aqueous spray solution derived from the formulation of the technical active ingredient in acetone/water (50:50) solution containing 0.5% Tween 20 (polyoxyethelyene sorbitan monolaurate, CAS RN 9005-64-5). Compounds are applied at […]. The test plants are then grown in a glasshouse under controlled conditions in a glasshouse (at 24/16° C., day/night; 14 hours light; 65% humidity) and watered twice daily. After 13 days for pre and post-emergence, the test is evaluated for the percentage damage caused to the plant. The biological activities are shown in the following table on a five point scale (5=80-100%; 4=60-79%; 3=40-59%; 2=20-39%; 1=0-19%).
Using procedures outlines above, wheat and barley crop plants and a weed species (SETFA) are treated post-emergence with compound A11 of the present invention or comparator compound C1 (Compound A-38 from WO2014/096289) at the application rates indicated. The compounds were also applied to wheat in conjunction with the safener compound cloquintocet-mexyl (CQC) at 50 g/ha.

[2] = system: Lolium perenne (LOLPE); assay: Pre-emergence herbicidal glasshouse test, percentage damage
Procedure: as §1

[3] = system: Alopecurus myosuroides (ALOMY); assay: as above
Procedure: as §1

[4] = system: Setaria faberi (SETFA); assay: as above
Procedure: as §1

[5] = system: Echinochloa crus-galli (ECHCG); assay: as above
Procedure: as §1

[6] = system: Avena fatua (AVEFA); assay: as above
Procedure: as §1

[7] = system: Lolium perenne (LOLPE); assay: Post-emergence herbicidal glasshouse test, percentage damage
Procedure: as §1

[8] = system: Echinochloa crus-galli (ECHCG); assay: as above
Procedure: as §1

[9] = system: Avena fatua (AVEFA); assay: as above
Procedure: as §1

| Structure (SMILES) | SETFA POST percentage damage (five point scale) [1] | LOLPE PRE percentage damage (five point scale) [2] | ALOMY PRE percentage damage (five point scale) [3] | SETFA PRE percentage damage (five point scale) [4] | ECHCG PRE percentage damage (five point scale) [5] | AVEFA PRE percentage damage (five point scale) [6] | LOLPE POST percentage damage (five point scale) [7] | ECHCG POST percentage damage (five point scale) [8] | AVEFA POST percentage damage (five point scale) [9] |
| --- | --- | --- | --- | --- | --- | --- | --- | --- | --- |
| CC#Cc1cc(C)c(C2=C(OC(=O)OC)CC3(CCN(C(=O)c4ccncn4)CC3)CC2=O)c(C)c1 [Compound P37] | 5 (5=80-100%) | 5 (5=80-100%) | 5 (5=80-100%) | 5 (5=80-100%) | 5 (5=80-100%) | 5 (5=80-100%) | 5 (5=80-100%) | 5 (5=80-100%) | 5 (5=80-100%) |
| CC#Cc1cc(C)c(C2=C(OC(=O)OC)CC3(CCN(C(=O)C4CC4)CC3)CC2=O)c(C)c1 [Compound P42] | 5 (5=80-100%) | 5 (5=80-100%) | 5 (5=80-100%) | 5 (5=80-100%) | 5 (5=80-100%) | 5 (5=80-100%) | 5 (5=80-100%) | 5 (5=80-100%) | 5 (5=80-100%) |
| CC#Cc1cc(C)c(C2=C(OC(=O)OC)CC3(CCN(C(=O)c4cccnc4)CC3)CC2=O)c(C)c1 [Compound P35] | 5 (5=80-100%) | 5 (5=80-100%) | 5 (5=80-100%) | 5 (5=80-100%) | 5 (5=80-100%) | 5 (5=80-100%) | 5 (5=80-100%) | 5 (5=80-100%) | 5 (5=80-100%) |
| CC#Cc1cc(C)c(C2=C(OC(C)=O)CC3(CCN(C(=O)CC#N)CC3)CC2=O)c(C)c1 [Compound P41] | 5 (5=80-100%) | 5 (5=80-100%) | 5 (5=80-100%) | 5 (5=80-100%) | 5 (5=80-100%) | 5 (5=80-100%) | 5 (5=80-100%) | 5 (5=80-100%) | 5 (5=80-100%) |
| CC#Cc1cc(C)c(C2=C(OC(=O)OC)CC3(CCN(C(=O)C4COC4)CC3)CC2=O)c(C)c1 [Compound P44] | 5 (5=80-100%) | 5 (5=80-100%) | 5 (5=80-100%) | 5 (5=80-100%) | 5 (5=80-100%) | 5 (5=80-100%) | 5 (5=80-100%) | 5 (5=80-100%) | 5 (5=80-100%) |
| CC#Cc1cc(C)c(C2C(=O)CC3(CCN(C(=O)c4nc(OC)n(C)n4)CC3)CC2=O)c(C)c1 [Compound A105] | 5 (5=80-100%) | 5 (5=80-100%) | 5 (5=80-100%) | 5 (5=80-100%) | 5 (5=80-100%) | 5 (5=80-100%) | 5 (5=80-100%) | 3 (3=40-59%) | 5 (5=80-100%) |
| CC#Cc1cc(C)c(C2=C(OC(=O)OC)CC3(CCN(C(=O)C4CCOCC4)CC3)CC2=O)c(C)c1 [Compound P40] | 5 (5=80-100%) | 5 (5=80-100%) | 5 (5=80-100%) | 5 (5=80-100%) | 5 (5=80-100%) | 5 (5=80-100%) | 5 (5=80-100%) | 5 (5=80-100%) | 5 (5=80-100%) |
| CC#Cc1cc(C)c(C2=C(OC(=O)c3cccnc3)CC3(CCN(C(=O)c4cccnc4)CC3)CC2=O)c(C)c1 [Compound P36] | 5 (5=80-100%) | 5 (5=80-100%) | – | 5 (5=80-100%) | 5 (5=80-100%) | 4 (4=60-79%) | 5 (5=80-100%) | 5 (5=80-100%) | 5 (5=80-100%) |
| CC#Cc1cc(C)c(C2=C(OC(=O)OC)CC3(CCN(C(=O)C4=NOC(C)(C)C4)CC3)CC2=O)c(C)c1 [Compound P39] | 5 (5=80-100%) | 5 (5=80-100%) | 5 (5=80-100%) | 5 (5=80-100%) | 5 (5=80-100%) | 5 (5=80-100%) | 5 (5=80-100%) | 5 (5=80-100%) | 5 (5=80-100%) |
| CC#Cc1cc(C)c(C2C(=O)CC3(CCN(C(=O)CC4CCOCC4)CC3)CC2=O)c(C)c1 [Compound A109] | 5 (5=80-100%) | 5 (5=80-100%) | – | 5 (5=80-100%) | 5 (5=80-100%) | 5 (5=80-100%) | 5 (5=80-100%) | 5 (5=80-100%) | 5 (5=80-100%) |
| CC#Cc1cc(C)c(C2C(=O)CC3(CCN(C(=O)C4COCCO4)CC3)CC2=O)c(C)c1 (centres unmarked) [Compound A133] | 5 (5=80-100%) | 5 (5=80-100%) | – | 5 (5=80-100%) | 5 (5=80-100%) | 5 (5=80-100%) | 5 (5=80-100%) | 5 (5=80-100%) | 5 (5=80-100%) |
| CC#Cc1cc(C)c(C2C(=O)CC3(CCN(C(=O)c4cnc(C)cn4)CC3)CC2=O)c(C)c1 [Compound A127] | 5 (5=80-100%) | 5 (5=80-100%) | – | 5 (5=80-100%) | 5 (5=80-100%) | 5 (5=80-100%) | 5 (5=80-100%) | 5 (5=80-100%) | 5 (5=80-100%) |
| CC#Cc1cc(C)c(C2C(=O)CC3(CCN(C(=O)c4cnco4)CC3)CC2=O)c(C)c1 [Compound A116] | 5 (5=80-100%) | 5 (5=80-100%) | – | 5 (5=80-100%) | 5 (5=80-100%) | 5 (5=80-100%) | 5 (5=80-100%) | 5 (5=80-100%) | 5 (5=80-100%) |
| CC#Cc1cc(C)c(C2C(=O)CC3(CCN(C(=O)C4CCCOC4)CC3)CC2=O)c(C)c1 (centres unmarked) [Compound A128] | 4 (4=60-79%) | 5 (5=80-100%) | – | 5 (5=80-100%) | 5 (5=80-100%) | 3 (3=40-59%) | 5 (5=80-100%) | 5 (5=80-100%) | 5 (5=80-100%) |
| CC#Cc1cc(C)c(C2C(=O)CC3(CCN(C(=O)c4cocn4)CC3)CC2=O)c(C)c1 [Compound A123] | 5 (5=80-100%) | 5 (5=80-100%) | – | 5 (5=80-100%) | 5 (5=80-100%) | 5 (5=80-100%) | 5 (5=80-100%) | 5 (5=80-100%) | 5 (5=80-100%) |
